Laboratory results taken from patent US9187458B2, “Cyanoquinoline derivatives” (Tianjin Hemay Bio-Tech Co., LTD., priority 2010, dated 2015).
Where a name gives a salt, the structure may show the parent alone.

Assays:
NCI-H460 cells = assay: NCI-H460 Cell Growth Inhibition Test (MTT Assay); type: cell-based; conditions: Homo sapiens, 72 h incubation
Protocol: NCI-H460 Cell Growth Inhibition Test (MTT Assay)
1. Cell strains: NCI-H460 (human large cell lung cancer cell strains);
(§1) 1. A plate (10 cm) of cells in logarithmic growth phase normally cultured was collected;
(§2) 2. The culture solution was sucked out. The plate was washed with 5 ml of PBS 1-2 times;
3. PBS was sucked out. 2 ml of 0.25% pancreatin was added to infiltrate the cells for 1 min;
4. The pancreatin was sucked out. The culture plate was placed in an incubator. Digestion was carried out for about 2 min at 37° C.;
5. 4 ml of complete culture solution was added to the culture plate to stop the digestion. The cells were carefully scoured with micropipette (1 ml) to give a uniform cell suspension. The suspension was implanted into a 96-well cell culture plate by 2500 cells/100 μl per well. The culture plate was incubated overnight under 5% CO2 at 37° C. In day 2, 100 μl of culture solution comprising a compound was added in each well, and further incubated for 72 h under 5% CO2 at 37° C.
(§3) 6. The culture solution was sucked out;
(§4) 7. 100 μl of serum-free culture solution containing 0.5 mg/ml MTT was added in each well, and incubated for 3 h;
(§5) 8. The culture solution was carefully sucked out;
9. 100 μl of DMSO was added in each well and vibrated to dissolve;
(§6) 10. OD values were determined at 490 nM.
(§7) 1. Calculation of Relative Inhibition Ratio The inhibition ratio of a compound on cell growth=(PC−n)/(PC−NC)×100%
(§8) IC50: Concentration of a compound where inhibition ratio was 50%. IC50 values were fitted with Origin7.5.

EGFR-TK = target: T1, EGFR-TK (Homo sapiens, UniProt P00533); assay: Inhibition Test on EGFR-TK (ELISA, PGT substrate); type: biochemical; conditions: 20 min at room temperature, read-out: Inhibition Activity (EC50) on EGFR-TK phosphorylation
T1 construct: EGFR-TK: intracellular epidermal growth factor receptor phosphorylase
Protocol: Inhibition Test on EGFR-TK
1. 2 mg/ml of PGT was diluted with PBS to 0.2 mg/ml. The resulting solution was added into elisa plate by 50 μl per well. The plate was placed in a refrigerator at 4° C. and coated overnight.
2. The coating solution was discarded to stop coating. The plate was washed three times with PBS, and then beaten to dryness.
3. The elisa plate was placed in a refrigerator at 4° C., drained out and stood for 2h.
4. The mother liquid of aqueous solution of each compound was diluted with double distilled water to four folds, i.e. a desirable concentration. Then, the compound was diluted and added in the corresponding elisa well by 25 μl/well.
5. […] of ATP solution was diluted with double distilled water to 50 folds and then sufficiently mixed. The resulting solution was separately added in each elisa well by 25 μl per well (except for the negative control).
6. EGFR kinase was diluted with 2×TKB to 800 folds. The solution was added in elisa well with 50 μl per well. Then, the enzyme reaction began. The elisa plate was immediately placed on a micro-oscillator and shaked to react for 20 min at the room temperature.
7. 2% of SDS was added in the elisa well to stop the reaction by adding 100 μl of SDS into each well. The solution was sufficiently mixed on the micro-oscillator to sufficiently mix for about 5 min.
8. The reaction solution was sucked out. The plate was washed four times with PBST. After the plate was beaten to dryness, 0.25 μg/ml of mice anti-phosphorylation tyrosine-HRP antibody which was diluted with blocking solution (3% solution of BSA in PBST) was added in the plate by 100 μl per well. The mixture was reacted for 30 min at the room temperature.
9. The antibody reaction solution was sucked out. The plate was washed four times with PBST. After the plate was beated to dryness, TMB peroxidase substrate was added to the plate by 100 μl/well. The mixture reacted in the dark for 15 min at the room temperature.
10. 100 μl of 2N H2SO4 was added in the plate to stop the chromogenic reaction. After the bubbles were cleansed, OD values were determined in ELIASA at 450 nm.
11. Formula for calculating inhibition percentage: […]

A431 cells = assay: A431 Cell Growth Inhibition Test (MTT Assay); type: cell-based, human; conditions: Homo sapiens, A-431, 68 h, compound 1 μM, 68 h incubation, read-out: Growth Inhibition Ratio (%)
Protocol: A431 Cell Growth Inhibition Test (MTT Assay)
1. Cell strains: A431 (human epithelial […] cell strains);
Culture medium: 45% DMEM, 45% F12+10% FBS;
as §1, §2
3. PBS was sucked out, and 2 ml of 0.25% pancreatin was added to infiltrate the cells for 1 min;
4. The pancreatin was sucked out, and the culture plate was placed in an incubator. Digestion was carried out for about 15 min at 37° C.;
5. 4 ml of complete culture solution was added in the culture plate to stop the digestion. The cells were carefully scoured with micropipette (1 ml) to give a uniform cell suspension. The suspension was implanted into a 96-well cell culture plate by 2500 cells/100 μl per well. The culture plate was incubated overnight under 5% CO2 at 37° C. In day 2, 100 μl of culture solution comprising the compound was added in each well, and further incubated for 68 h under 5% CO2 at 37° C.
as §3
7. 100 μl of serum-free culture solution containing 0.5 mg/ml MTT was added in each well, and incubated for 4 h;
as §5
9. 100 μl of DMSO was added into each well and vibrated to dissolve;
as §6, §7
IC50: concentration of a compound where inhibition ratio was 50%. IC50 values were fitted with Origin7.5.

AsPC-1 cells = assay: AsPC-1 Cell Growth Inhibition Test (MTT Assay); type: cell-based; conditions: Homo sapiens, ASPC1, 72 h incubation
Protocol: AsPC-1 Cell Growth Inhibition Test (MTT Assay)
Cell strains: AsPC-1 (human pancreatic cancer cell strains);
as §1, §2
(§9) 3. PBS was sucked out. 1.5 ml of 0.25% pancreatin was added to infiltrate the cells for 1 min;
4. The pancreatin was sucked out. The culture plate was placed in an incubator. Digestion was carried out for about 7.5 min at 37° C.;
5. 4.5 ml of complete culture solution was added to the culture plate to stop the digestion. The cells were carefully scoured with micropipette (1 ml) to give a uniform cell suspension. The suspension was implanted into a 96-well cell culture plate by 8000 cells/100 μl per well. The culture plate was incubated overnight under 5% CO2 at 37° C. In day 2, 100 μl of culture solution comprising a compound was added in each well, and further incubated for 72 h under 5% CO2 at 37° C.
as §3, §4, §5
(§10) 9. 100 μl of DMSO was added in each welland vibrated to dissolve;
as §6, §7, §8

CCRF-CEM/T cells = assay: CCRF-CEM/T Cell Growth Inhibition Test (MTT Assay); type: cell-based; conditions: Homo sapiens, CCRF-CEM/T cells (resistant to paclitaxel), 72 h incubation
Protocol: CCRF-CEM/T Cell Growth Inhibition Test (MTT Assay)
Cell strains: CCRF-CEM/T (human acute lymphocytic cell leukemia cells);
triple lysate solution: 10% SDS, 5% isobutanol, 0.012M HCl.
1. Cells were cultured to exponential phase. The cells were suspension cells;
2. The cells were collected by centrifuge. The resulting cells were resuspended in a complete culture medium to a desired concentration. The cells suspension was implanted into a 96-well cell culture plate by 20000 cells per well. A compound was added in the wellsuch that the final volume of the system was 120 μl. The system was further incubated for 72 h under 5% CO2 at 37° C.
7. 30 μl of serum-free culture solution containing 2.5 mg/ml MTT was added in each well, and incubated for 3 h;
8. 150 μl of triple lysate solution was added in each well and placed to dissolve at the room temperature;
9. OD values were determined at 570 nM.
as §7, §8

Fadu cells = assay: Fadu Cell Growth Inhibition Test (MTT Assay); type: cell-based; conditions: Homo sapiens, 72 h incubation
Protocol: Fadu Cell Growth Inhibition Test (MTT Assay)
Cell strains: Fudu (human head and neck cancer cell strains);
Culture medium: 90% EMEM+10% FBS;
as §1, §2, §9
4. The pancreatin was sucked out. The culture plate was placed in an incubator. Digestion was carried out for about 5 min at 37° C.;
5. 4.5 ml of complete culture solution was added to the culture plate to stop the digestion. The cells were carefully scoured with micropipette (1 ml) to give a uniform cell suspension. The suspension was implanted into a 96-well cell culture plate by 6000 cells/100 μl per well. The culture plate was incubated overnight under 5% CO2 at 37° C. In day 2, 100 μl of culture solution comprising a compound was added in each well, and further incubated for 72 h under 5% CO2 at 37° C.
as §3, §4, §5, §10, §6, §7, §8

NCI-H1650 cells = assay: NCI-H1650 Cell Growth Inhibition Test (SRB Assay); type: cell-based; conditions: Homo sapiens, 72 h incubation
Protocol: NCI-H1650 Cell Growth Inhibition Test (SRB Assay)
1. Cell strains: NCI-H1650 (human non-small cell lung cancer cell strains);
2. SRB, 0.4% (w/v) working solution was formulated with 1% glacial acetic acid and reserved at 4° C.; antitumor compounds; DMSO
as §1
2. The culture solution was sucked out. The plate was washed with 5 mL of PBS 1-2 times;
3. 1.5 mL of 0.25% pancreatin was added to the plate to infiltrate the cells;
4. The pancreatin was sucked out. The culture plate was placed in an incubator. Digestion was carried out for about 3 min at 37° C.;
5. 4 mL of complete culture solution was added to the culture plate to stop the digestion. The cells were carefully scoured with micropipette (1 ml) to give a uniform single cell suspension. The suspensin was implanted into a 96-well cell culture plate by 6000 cells/100 μl per well. The culture plate was incubated overnight under 5% CO2 at 37° C. In day 2, 100 μl of culture solution comprising a compound was added in each well, and further incubated for 72 h under 5% CO2 at 37° C.;
(§11) 6. The culture solution was sucked out. 100 uL of TCA fixed cells which were diluted to 10% were added to each well. The plate was kept in a refrigerator for 1 h at 4° C.
(§12) 7. TCA stationary liquid was sucked out. Each well was washed with 150 μL of ddH2O five times;
(§13) 8. After the stationary liquid was cleansed, the plate was dried in the air at the room temperature;
(§14) 9. 60 μL of SRB staining solution was added in each well. The well was stained for 15 min at the room temperature;
(§15) 10. The SRB staining solution was sucked out. Each well was washed with 150 μL of 1% glacial acetic acid five times;
(§16) 11. After the SRB staining solution was cleansed, the plate was dried in the air at the room temperature;
12. 100 μL of 10 mM Tris was added in each well, the plate was vibrated to dissolve out SRB;
(§17) 13. OD values were determined at 570 nM.
as §7, §8

BT-474 cells = assay: BT-474 Cell Growth Inhibition Test (SRB Assay); type: cell-based, human; conditions: Homo sapiens, BT-474, 70 h, compound 1 μM, 70 h incubation, read-out: Growth Inhibition Ratio (%)
Protocol: BT-474 Cell Growth Inhibition Test (SRB Assay)
1. Cell strains: BT-474 (human breast tumor cell strains);
2. SRB: available from Sigmaaldrich, goods number: S9012, lot number: 047K3751. SRB was reserved at the room temperature. 0.4% (w/v) of working solution was formulated with 1% of glacial acetic acid. The solution was reserved at the temperature of 4° C.; anti-tumor compounds; DMSO.
Culture medium (90% EMEM+10% FBS+0.1 mM NEAA, reserved at 4° C.);
1. A plate (10 cm) of cells in logarithmic growth phase normally cultured was collected. The culture solution was sucked out. The plate was washed with 5 mL of PBS 1-2 times;
2. PBS was sucked out, and […] of 0.25% pancreatin was added to infiltrate the cells for 30 s;
3. The pancreatin was sucked out. The culture plate was pleaced in an incubator. Digestion was carried out for about 5 min at 37° C.;
4. 3 mL of complete culture solution was added to the culture plate to stop the digestion. The cells were carefully scoured with micropipette (1 ml) to give a uniform single cell suspension;
5. Cell suspension was counted. The suspension was diluted to 1×10^5/ml. The resulting suspension was developed uniformly on a plate. The plate was incubated under 5% CO2 at 37° C. overnight. In day 2, 80 μL of complete culture medium was added in each well and then 20 μL of culture solution comprising a compound was added. The mixture was incubated for 70 h under 5% CO2 at 37° C.
as §11, §12, §13, §14, §15, §16
12. 100 μL of 10 mM Tris was added in each well. The plate was vibrated to dissolve out SRB;
as §17, §7, §8

T1 sequence (P00533 669-1210 limits assumed): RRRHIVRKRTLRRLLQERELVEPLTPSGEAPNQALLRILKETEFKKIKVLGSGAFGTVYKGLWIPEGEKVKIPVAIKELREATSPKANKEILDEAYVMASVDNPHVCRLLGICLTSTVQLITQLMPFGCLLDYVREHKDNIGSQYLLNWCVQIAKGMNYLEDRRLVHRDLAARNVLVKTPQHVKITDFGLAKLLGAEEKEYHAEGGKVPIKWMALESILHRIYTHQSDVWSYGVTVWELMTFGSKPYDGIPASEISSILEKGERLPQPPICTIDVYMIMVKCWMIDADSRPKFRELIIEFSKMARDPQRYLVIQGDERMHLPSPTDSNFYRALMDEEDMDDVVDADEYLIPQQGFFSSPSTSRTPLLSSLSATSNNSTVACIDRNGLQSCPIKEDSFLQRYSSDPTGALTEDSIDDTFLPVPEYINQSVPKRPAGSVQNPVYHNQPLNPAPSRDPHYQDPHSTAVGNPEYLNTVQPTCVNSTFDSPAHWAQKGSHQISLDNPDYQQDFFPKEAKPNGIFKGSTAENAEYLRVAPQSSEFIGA

## N#Cc1cnc2cc(OC3CCOC3)c(NC(=O)C=C3CCNCC3)cc2c1Nc1ccc(OCc2cccc(F)c2)c(Cl)c1 (stereo not shown) [Example 46, N-(4-(4-(3-FLUOROBENZYLOXY)-3-CHLOROPHENYLAMINO)-3-CYANO-7-(TETRAHYDROFURAN-3-YL-OXY)QUINOLIN-6-YL)-2-(PIPERIDIN-4-YLIDENE)ACETAMIDE]
NCI-H460 cells
  IC50: 4000 nM
EGFR-TK
  EC50: 25 nM

## CN(C)C/C=C/C(=O)Nc1cc2c(Nc3ccc(OCc4cccc(F)c4)c(Cl)c3)c(C#N)cnc2cc1O[C@H]1CCOC1 [Example 158, (S,E)-N-(4-(4-(3-FLUOROBENZYLOXY)-3-CHLOROPHENYLAMINO)-3-CYANO-7-(TETRAHYDROFURAN-3-YL-OXY)QUINOLIN-6-YL)-4-(DIMETHYLAMINO)-BUT-2-ENAMIDE]
A431 cells
  inhibition at 1 µM: 77%
AsPC-1 cells
  IC50: 440 nM
CCRF-CEM/T cells
  IC50: 1100 nM
Fadu cells
  IC50: 119 nM
NCI-H1650 cells
  IC50: 760 nM
BT-474 cells
  inhibition at 1 µM: 82%

## CN(C)C/C=C/C(=O)Nc1cc2c(Nc3ccc(OCc4ccccn4)c(Cl)c3)c(C#N)cnc2cc1OC1CCOC1 (stereo not shown) [Example 3, (E)-N-(4-(3-CHLORO-4-(PYRIDIN-2-YL-METHOXY)PHENYLAMINO)-3-CYANO-7-(TETRAHYDROFURAN-3-YL-OXY)QUINOLIN-6-YL)-4-(DIMETHYLAMINO)-BUT-2-ENAMIDE HYDROCHLORIDE]
A431 cells
  inhibition at 1 µM: 85%
NCI-H1650 cells
  IC50: 819 nM
